{"source": "the supplement of paper PMC11208160"}
{"assay": "recombinant barcode read abundance after kanamycin selection (control-corrected) (log10(CPM+1)); higher = more efficient recombination; sequences stand for … in AGTGCAGAGAAAATCGGCCAGTTTTCTCTGCCTGCAGTCCGCATGCCGT…AGATTTATGCAGCGGACTGCCTTTCTCCCAAAGTGATAAACCGGACAGTATCATGGACCGGTTTTCCCGGTAATCCGTATTTGCAAGGTTGGTTTCACT; site = the 11-nt target", "in_short": "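Targets were screened in pooled form in E. coli against IS621 bridge RNA target-binding loops. Recombination efficiency is based on barcode counts at recombinant junctions in counts per million, averaged and corrected for the control. Numbers are shown as log10(CPM+1), with duplicate plates on chloramphenicol/ampicillin LB agar (control) or chloramphenicol/ampicillin/kanamycin with 0.1 mM IPTG.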"}
{"sequence": "GTTCCTACTTGGGTTCTAACCTGTTGCCT (site GCTCCTACTAG)", "recombinant barcode read abundance (log10)": 0.00954}
{"sequence": "ATGATATCTTGGGTTCTAACCTGTTGCCT (site AAGATATCTAG)", "recombinant barcode read abundance (log10)": 0.0255}
{"sequence": "TACAGTACTTGGGTTCTAACCTGTTGCCT (site TACAGTACTAG)", "recombinant barcode read abundance (log10)": 0.291}
{"sequence": "TCGGATACTTGGGTTCTAACCTGTTGCAT (site TCGGATACTAT)", "recombinant barcode read abundance (log10)": 1.57}
{"sequence": "GCAGGGACTTGGGTTCTAACCTGTTGCAG (site GCAGGGACTCT)", "recombinant barcode read abundance (log10)": 1.72}
{"sequence": "GTGAGGTCTTGGGTTCTAACCTGTTGCGT (site GTGAGGTCTAA)", "recombinant barcode read abundance (log10)": 0.231}
{"sequence": "AATGCTCCTTGGGTTCTAACCTGTTGCAT (site AATGCTCCTAT)", "recombinant barcode read abundance (log10)": 0.533}
{"sequence": "TATACACCTTGGGTTCTAACCTGTTGCGT (site CTCCGGGCTCT)", "recombinant barcode read abundance (log10)": 0.0474}
{"sequence": "GGCGTGTCTTGGGTTCTAACCTGTTGCGG (site GACGTGTCTCG)", "recombinant barcode read abundance (log10)": 0.125}
{"sequence": "TCGAACCCTTGGGTTCTAACCTGTTGCGG (site TCGAACCCTCC)", "recombinant barcode read abundance (log10)": 0.851}
{"sequence": "CTATGCCCTTGGGTTCTAACCTGTTGCGA (site CTATGCCCTTA)", "recombinant barcode read abundance (log10)": 0.129}
{"sequence": "TTATACACTTGGGTTCTAACCTGTTGCAG (site TTATACACTCT)", "recombinant barcode read abundance (log10)": 1.98}
{"sequence": "TGCGTCACTTGGGTTCTAACCTGTTGCGT (site TGCGTCACTAC)", "recombinant barcode read abundance (log10)": 1.56}
{"sequence": "TAGGCTACTTGGGTTCTAACCTGTTGCAA (site TAGGCTACTCT)", "recombinant barcode read abundance (log10)": 0.0112}
{"sequence": "CAGTGTCCTTGGGTTCTAACCTGTTGCCG (site GAGCGTCCTCG)", "recombinant barcode read abundance (log10)": 0.122}
{"sequence": "CTAGGAGCTTGGGTTCTAACCTGTTGCTT (site CTAGGAGCTGA)", "recombinant barcode read abundance (log10)": 0.0912}
{"sequence": "TAGCGGCCTTGGGTTCTAACCTGTTGCCT (site TAGCGGCCTAG)", "recombinant barcode read abundance (log10)": 0.428}
{"sequence": "AGACTTCCTTGGGTTCTAACCTGTTGCTT (site AGACTTCCTAA)", "recombinant barcode read abundance (log10)": 0.811}
{"sequence": "TTCAAACCTTGGGTTCTAACCTGTTGCCT (site TTCAAAGCTAG)", "recombinant barcode read abundance (log10)": 0.0476}
{"sequence": "GTCTAGGCTTGGGTTCTAACCTGTTGCTG (site GTCTAGGCTCA)", "recombinant barcode read abundance (log10)": 0.876}
{"sequence": "AAGACATCTTGGGTTCTAACCTGTTGCTT (site AAGACATCTAA)", "recombinant barcode read abundance (log10)": 1.19}
{"sequence": "CCGGTGCCTTGGGTTCTAACCTGTTGCCT (site CCGGTGCCTAG)", "recombinant barcode read abundance (log10)": 2.29}
{"sequence": "AATGGGGCTTGGGTTCTAACCTGTTGCAG (site AATGGGGCTCT)", "recombinant barcode read abundance (log10)": 2.51}
{"sequence": "AGTGGGACTTGGGTTCTAACCTGTTGCCA (site GGTGAGACTTG)", "recombinant barcode read abundance (log10)": 0.0594}
{"sequence": "TCCGATTCTTGGGTTCTAACCTGTTGCGT (site TCCGATTCTAC)", "recombinant barcode read abundance (log10)": 1.7}
{"sequence": "TACTTAGCTTGGGTTCTAACCTGTTGCCG (site TAGTTACCTCG)", "recombinant barcode read abundance (log10)": 0.0382}
{"sequence": "TTCGACGCTTGGGTTCTAACCTGTTGCCT (site TTCGACGCTAG)", "recombinant barcode read abundance (log10)": 1.03}
{"sequence": "GTCGGAACTTGGGTTCTAACCTGTTGCCT (site GTCGGAACTAG)", "recombinant barcode read abundance (log10)": 1.73}
{"sequence": "AGCTTACCTTGGGTTCTAACCTGTTGCCT (site CGCTTACCTAG)", "recombinant barcode read abundance (log10)": 0.212}
{"sequence": "AGCCTGGCTTGGGTTCTAACCTGTTGCCT (site AGCCTGTCTAG)", "recombinant barcode read abundance (log10)": 0.0926}
{"sequence": "CATGATACTTGGGTTCTAACCTGTTGCCT (site CATGATACTAG)", "recombinant barcode read abundance (log10)": 0.922}
{"sequence": "AACTAGTCTTGGGTTCTAACCTGTTGCTA (site AACCAGTCTTC)", "recombinant barcode read abundance (log10)": 0.0577}
{"sequence": "CGCCGTACTTGGGTTCTAACCTGTTGCCT (site CGTCGTACTAG)", "recombinant barcode read abundance (log10)": 0.0659}
{"sequence": "ACAGACGCTTGGGTTCTAACCTGTTGCCT (site ACAGGCGCTAG)", "recombinant barcode read abundance (log10)": 0.163}
{"sequence": "CACTTCCCTTGGGTTCTAACCTGTTGCCT (site CACTTCCCTAT)", "recombinant barcode read abundance (log10)": 0.0298}
{"sequence": "CACTACCCTTGGGTTCTAACCTGTTGCTT (site CACTACCCTAA)", "recombinant barcode read abundance (log10)": 1.24}
{"sequence": "GAGCGAGCTTGGGTTCTAACCTGTTGCAT (site GAGCGAGCTAT)", "recombinant barcode read abundance (log10)": 1.94}
{"sequence": "TGAATTACTTGGGTTCTAACCTGTTGCCT (site TGAAGTACTAG)", "recombinant barcode read abundance (log10)": 0.033}
{"sequence": "ATGCAATCTTGGGTTCTAACCTGTTGCCT (site ATGCAATCTAG)", "recombinant barcode read abundance (log10)": 1.09}
{"sequence": "TGAAATCCTTGGGTTCTAACCTGTTGCCT (site TGAAATCCTAG)", "recombinant barcode read abundance (log10)": 0.304}
{"sequence": "CGCGGTCCTTGGGTTCTAACCTGTTGCCT (site CGCGCTCCTAG)", "recombinant barcode read abundance (log10)": 0.109}
{"sequence": "ATGCGGTCTTGGGTTCTAACCTGTTGCCT (site ATGCGGTCTAG)", "recombinant barcode read abundance (log10)": 2.02}
{"sequence": "AGATTCACTTGGGTTCTAACCTGTTGCCT (site AGATTCACTAG)", "recombinant barcode read abundance (log10)": 0.994}
{"sequence": "TCACATTCTTGGGTTCTAACCTGTTGCCT (site TCATATTCTAG)", "recombinant barcode read abundance (log10)": 0.155}
{"sequence": "AGCCTGACTTGGGTTCTAACCTGTTGCCT (site AGCCTGCCTAG)", "recombinant barcode read abundance (log10)": 0.313}
{"sequence": "ACGAAGGCTTGGGTTCTAACCTGTTGCCG (site ACGAAGGCTAG)", "recombinant barcode read abundance (log10)": 0.182}
{"sequence": "GTCTATACTTGGGTTCTAACCTGTTGCCA (site GTCTATACTTG)", "recombinant barcode read abundance (log10)": 0.571}
{"sequence": "CTAGACACTTGGGTTCTAACCTGTTGCCT (site CTTGACACTAG)", "recombinant barcode read abundance (log10)": 0.512}
{"sequence": "TTCGACTCTTGGGTTCTAACCTGTTGCTA (site TACGACTCTAA)", "recombinant barcode read abundance (log10)": 0.137}
{"sequence": "GGGAACCCTTGGGTTCTAACCTGTTGCTG (site GGGAACCCTAA)", "recombinant barcode read abundance (log10)": 0.0418}
{"sequence": "CTGGTGTCTTGGGTTCTAACCTGTTGCCA (site CTGATGTCTTG)", "recombinant barcode read abundance (log10)": 0.0384}
{"sequence": "CCTAAGCCTTGGGTTCTAACCTGTTGCAT (site CCTAAGCCTAT)", "recombinant barcode read abundance (log10)": 0.859}
{"sequence": "CACTCTCCTTGGGTTCTAACCTGTTGCCT (site CACTCTCCTAG)", "recombinant barcode read abundance (log10)": 0.226}
{"sequence": "CAACCGACTTGGGTTCTAACCTGTTGCCT (site CAACCGCCTAG)", "recombinant barcode read abundance (log10)": 0.265}
{"sequence": "TCTAGAACTTGGGTTCTAACCTGTTGCCT (site TCTAGACCTAG)", "recombinant barcode read abundance (log10)": 0.0178}
{"sequence": "GTAAATCCTTGGGTTCTAACCTGTTGCCT (site TTAAATCCTAG)", "recombinant barcode read abundance (log10)": 0.132}
{"sequence": "CTAACCGCTTGGGTTCTAACCTGTTGCCT (site CCAACCGCTAG)", "recombinant barcode read abundance (log10)": 0.266}
{"sequence": "CCATGGACTTGGGTTCTAACCTGTTGCCT (site CCACGGACTAG)", "recombinant barcode read abundance (log10)": 0.516}
{"sequence": "GAGCTGACTTGGGTTCTAACCTGTTGCCT (site GAGCAGACTAG)", "recombinant barcode read abundance (log10)": 0.182}
{"sequence": "AACAAGCCTTGGGTTCTAACCTGTTGCTG (site AACATGCCTAA)", "recombinant barcode read abundance (log10)": 0.0487}
{"sequence": "CCTGCGACTTGGGTTCTAACCTGTTGCCT (site CCTGCGGCTAG)", "recombinant barcode read abundance (log10)": 0.0687}
{"sequence": "TAGTATCCTTGGGTTCTAACCTGTTGCTA (site TAGTATGCTTA)", "recombinant barcode read abundance (log10)": 0.0411}
{"sequence": "ATCTAAACTTGGGTTCTAACCTGTTGCCT (site ATCTAAACTAG)", "recombinant barcode read abundance (log10)": 0.842}
{"sequence": "GTCGAACCTTGGGTTCTAACCTGTTGCTA (site GTCGTAGCTTA)", "recombinant barcode read abundance (log10)": 0.0873}
{"sequence": "TGGCAGGCTTGGGTTCTAACCTGTTGCCT (site TGGCAGTCTAG)", "recombinant barcode read abundance (log10)": 0.0352}
{"sequence": "GGCGCGTCTTGGGTTCTAACCTGTTGCAT (site GGCGCGTCTAT)", "recombinant barcode read abundance (log10)": 0.589}
